{"source": "paper PMC7273348", "about": "“Unraveling a Tangled Skein: Evolutionary Analysis of the Bacterial Gibberellin Biosynthetic Operon” (mSphere, 2020)", "biological_target": "T1, ReIDS2 (ReGGPS2) (Rhizobium etli, UniProt Q8KLD2)", "T1 construct": "gene RHE_PD00244; full-length ORF in pET101/D-TOPO, C-terminal 6xHis tag, E. coli BL21 Star", "T1 sequence (Q8KLD2 1-309)": "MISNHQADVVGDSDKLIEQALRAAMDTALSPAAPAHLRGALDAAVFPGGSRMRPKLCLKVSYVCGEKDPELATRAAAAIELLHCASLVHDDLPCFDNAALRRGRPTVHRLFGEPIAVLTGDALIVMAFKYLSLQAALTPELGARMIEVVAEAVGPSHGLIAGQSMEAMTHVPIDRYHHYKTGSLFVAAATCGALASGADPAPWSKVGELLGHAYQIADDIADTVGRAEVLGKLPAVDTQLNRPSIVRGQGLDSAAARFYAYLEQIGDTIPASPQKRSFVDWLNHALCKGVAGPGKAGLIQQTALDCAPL", "experiment": "LC-MS/MS detection of GGPP product", "type": "biochemical", "conditions": "50 uM IPP + 50 uM DMAPP; MOPSO pH 7.2, 10 mM MgCl2; 30 C, 2 h; main product GGPP"}
{"smiles": "CC(C)=CCOP(=O)(O)OP(=O)(O)O", "note": "[DMAPP]", "values": [{"measurement": "LC-MS/MS detection of GGPP product", "result": "produced GGPP as its major product from the universal isoprenoid precursors IPP and DMAPP"}]}
